According to patent US20240270762A1, “PENICILLIN-BINDING PROTEIN INHIBITORS” (priority 2021, published 2024):
≈ marks a conversion by molar mass, not a printed value. Where two headings read alike, the source gives them in different places.

What was measured:
[1] = test system: B. humptydooensis ATCC BAA-2767; assay: microbe, parasite or virus in culture; format: cell-based; settings: Burkholderia humptydooensis, ATCCBAA2767, read-out: Minimum inhibitory concentration (MIC), B. humptydooensis ATCC BAA-2767
[2] = test system: P. aeruginosa ATCC 35151; assay: microbe, parasite or virus in culture; format: cell-based; settings: Pseudomonas aeruginosa, ATCC35151, read-out: Minimum inhibitory concentration, P. aeruginosa ATCC 35151
[3] = test system: A. baumannii 1258916; assay: microbe, parasite or virus in culture; format: cell-based, Acinetobacter baumannii
[4] = test system: P. aeruginosa CDC-0090; assay: microbe, parasite or virus in culture; format: cell-based; settings: Pseudomonas aeruginosa, CDC0090, read-out: Minimum inhibitory concentration, P. aeruginosa CDC-0090
[5] = biological target: T1, A. baumannii PBP1a (Acinetobacter baumannii, UniProt A0ABX6CK30); assay: Bocillin-FL competition binding via gel filtration, A. baumannii PBP1a; settings: competition binding assay using Bocillin-FL via gel filtration; read-out: A. baumannii PBP1a Potency
T1 sequence (A0ABX6CK30 1-851): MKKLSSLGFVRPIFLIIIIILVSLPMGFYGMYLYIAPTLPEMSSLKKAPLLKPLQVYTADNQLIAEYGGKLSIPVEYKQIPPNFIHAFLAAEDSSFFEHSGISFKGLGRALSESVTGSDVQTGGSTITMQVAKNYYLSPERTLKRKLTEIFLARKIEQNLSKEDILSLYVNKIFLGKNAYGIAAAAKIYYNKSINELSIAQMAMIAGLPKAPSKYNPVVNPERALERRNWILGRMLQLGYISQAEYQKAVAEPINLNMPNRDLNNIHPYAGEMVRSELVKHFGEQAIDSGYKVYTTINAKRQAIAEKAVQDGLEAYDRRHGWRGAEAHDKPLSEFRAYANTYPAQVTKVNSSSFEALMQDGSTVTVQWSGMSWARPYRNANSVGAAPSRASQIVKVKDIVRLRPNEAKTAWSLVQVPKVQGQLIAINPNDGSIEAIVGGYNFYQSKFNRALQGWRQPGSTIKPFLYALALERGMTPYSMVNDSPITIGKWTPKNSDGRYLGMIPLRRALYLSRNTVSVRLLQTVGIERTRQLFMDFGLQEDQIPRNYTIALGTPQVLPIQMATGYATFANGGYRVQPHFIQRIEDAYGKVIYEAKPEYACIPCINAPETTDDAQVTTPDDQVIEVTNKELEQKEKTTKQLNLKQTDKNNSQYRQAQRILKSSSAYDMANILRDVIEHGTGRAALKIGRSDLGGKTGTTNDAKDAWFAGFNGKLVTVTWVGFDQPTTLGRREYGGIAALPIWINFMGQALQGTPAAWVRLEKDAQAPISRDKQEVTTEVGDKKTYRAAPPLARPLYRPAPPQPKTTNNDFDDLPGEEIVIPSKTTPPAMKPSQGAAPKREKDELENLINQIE
In short: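 Enzyme pre-incubated with increasing inhibitor concentrations, then Bocillin-FL added for 15 min further incubation. Bocillin-FL-bound PBP separated by gel filtration and fluorescence read. EC50 from fitting fraction PBP bound vs inhibitor concentration to a Hill-type equation (ymin, ymax, n).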

[6] = test system: P. aeruginosa CDC-0054; assay: microbe, parasite or virus in culture; format: cell-based; settings: Pseudomonas aeruginosa, CDC0054, read-out: Minimum inhibitory concentration, P. aeruginosa CDC-0054
[7] = test system: P. aeruginosa CDC-0095; assay: microbe, parasite or virus in culture; format: cell-based; settings: Pseudomonas aeruginosa, CDC0095, read-out: Minimum inhibitory concentration, P. aeruginosa CDC-0095
[8] = test system: B. thailandensis ATCC 700388; assay: microbe, parasite or virus in culture; format: cell-based; settings: Burkholderia thailandensis, ATCC700388, read-out: Minimum inhibitory concentration (MIC), B. thailandensis ATCC 700388
[9] = test system: P. aeruginosa ATCC 27853; assay: microbe, parasite or virus in culture; format: cell-based; settings: Pseudomonas aeruginosa, ATCC27853, read-out: Minimum inhibitory concentration, P. aeruginosa ATCC 27853
[10] = test system: A. baumannii CDC-0033; assay: microbe, parasite or virus in culture; format: cell-based; settings: Acinetobacter baumannii
[11] = test system: A. baumannii ATCC 17978; assay: microbe, parasite or virus in culture; format: cell-based; settings: Acinetobacter baumannii
[12] = Acinetobacter baumannii, 1258916, read-out: Minimum inhibitory concentration (MIC), A. baumannii 1258916
[13] = CDC0033, read-out: Minimum inhibitory concentration (MIC), A. baumannii CDC-0033
[14] = ATCC17978, read-out: Minimum inhibitory concentration (MIC), A. baumannii ATCC 17978
[15] = Acinetobacter baumannii, 1258916, read-out: MIC, A. baumannii 1258916
[16] = CDC0033, read-out: MIC, A. baumannii CDC-0033
[17] = ATCC17978, read-out: MIC, A. baumannii ATCC 17978

| Structure (SMILES) | MIC [1] [µg/mL] | MIC [2] [µg/mL] | MIC [3, 12] [µg/mL] | MIC [4] [µg/mL] | EC50 [5] [µM] | MIC [6] [µg/mL] | MIC [7] [µg/mL] | MIC [8] [µg/mL] | MIC [9] [µg/mL] | MIC [10, 13] [µg/mL] | MIC [11, 14] [µg/mL] | MIC [3, 15] [µg/mL] | MIC [10, 16] [µg/mL] | MIC [11, 17] [µg/mL] |
| --- | --- | --- | --- | --- | --- | --- | --- | --- | --- | --- | --- | --- | --- | --- |
| O=C(O)c1c(F)ccc2c1OB(O)[C@@H](NC(=O)C(NC(=O)N1CCN(C3CCN(C(=O)Nc4ccc(Cl)c(O)c4F)CC3)C(=O)C1=O)c1cc(F)c(O)c(O)c1Cl)C2 (stereo partly drawn) [Example 489, (3R)-3-(2-(4-(1-((4-chloro-2-fluoro-3-hydroxyphenyl)carbamoyl)piperidin-4-yl)-2,3-dioxopiperazine-1-carboxamido)-2-(2-chloro-5-fluoro-3,4-dihydroxyphenyl)acetamido)-7-fluoro-2-hydroxy-3,4-dihydro-2H-benzo[e][1,2]oxaborinine-8-carboxylic acid] | 32 to 64 (≈ 37.5 to 75 µM) | < 1 | < 1 | 2 to 4 (≈ 2.34 to 4.69 µM) | < 10 | < 1 | < 1 | 2 to 4 (≈ 2.34 to 4.69 µM) | 2 to 4 (≈ 2.34 to 4.69 µM) | 2 to 4 (≈ 2.34 to 4.69 µM) | < 1 |  |  |  |
| O=C(NCCS(=O)(=O)N1CCN(C(=O)N[C@H](C(=O)N[C@H]2Cc3ccc(F)c(C(=O)O)c3OB2O)c2ccc(P(=O)(O)O)cc2)C1=O)c1ccc(O)c(O)c1Cl [Example 167, (R)-3-((S)-2-(3-((2-(2-chloro-3,4-dihydroxybenzamido)ethyl)sulfonyl)-2-oxoimidazolidine-1-carboxamido)-2-(4-phosphonophenyl)acetamido)-7-fluoro-2-hydroxy-3,4-dihydro-2H-benzo[e][1,2]oxaborinine-8-carboxylic acid] | > 128 | 32 to 64 (≈ 38.7 to 77.3 µM) |  | > 128 | 50 to 250 | > 128 | > 128 | > 128 | > 128 |  |  | > 128 | > 128 | 32 to 64 (≈ 38.7 to 77.3 µM) |
| O=C(O)c1c(F)ccc2c1OB(O)[C@@H](NC(=O)[C@H](NC(=O)N1CCN(Cc3ccc(O)c(O)c3Cl)C(=O)C1=O)c1cccc(P(=O)(O)O)c1)C2 (single isomer, unassigned) [Example 163] | < 1 | < 1 |  | 2 to 4 (≈ 2.72 to 5.44 µM) | < 10 | < 1 | < 1 | < 1 | < 1 |  |  | < 1 | < 1 | < 1 |
| O=C(O)c1c(F)ccc2c1OB(O)[C@@H](NC(=O)C(NC(=O)N1CCN(C3CCN(S(=O)(=O)Cc4cccc(O)c4)CC3)C(=O)C1=O)c1cc(F)c(O)c(O)c1Cl)C2 (stereo partly drawn) [Example 485, (3R)-3-(2-(2-chloro-5-fluoro-3,4-dihydroxyphenyl)-2-(4-(1-((3-hydroxybenzyl)sulfonyl)piperidin-4-yl)-2,3-dioxopiperazine-1-carboxamido)acetamido)-7-fluoro-2-hydroxy-3,4-dihydro-2H-benzo[e][1,2]oxaborinine-8-carboxylic acid] | 2 to 4 (≈ 2.39 to 4.78 µM) | < 1 |  | < 1 | < 10 | < 1 | < 1 | 2 to 4 (≈ 2.39 to 4.78 µM) | 2 to 4 (≈ 2.39 to 4.78 µM) |  |  | < 1 | < 1 | < 1 |
| O=C(O)c1c(F)ccc2c1OB(O)[C@@H](NC(=O)[C@H](NC(=O)N1CCN(C3CCN(C(=O)c4cccc(O)c4F)CC3)C1=O)c1cc(F)c(O)c(O)c1Cl)C2 (single isomer, unassigned) [Example 431] | < 1 | < 1 |  | < 1 | < 10 | < 1 | < 1 | < 1 | < 1 |  |  | < 1 | < 1 | < 1 |
| O=C(O)c1c(F)ccc2c1OB(O)[C@@H](NC(=O)C(NC(=O)N1CCN(C3CCN(C(=O)Nc4ccc(F)c(O)c4F)CC3)C1=O)c1cc(F)c(O)c(O)c1Cl)C2 (stereo partly drawn) [Example 452, (3R)-3-(2-(2-chloro-5-fluoro-3,4-dihydroxyphenyl)-2-(3-(1-((2,4-difluoro-3-hydroxyphenyl)carbamoyl)piperidin-4-yl)-2-oxoimidazolidine-1-carboxamido)acetamido)-7-fluoro-2-hydroxy-3,4-dihydro-2H-benzo[e][1,2]oxaborinine-8-carboxylic acid] |  | < 1 |  | < 1 | 10 to 50 | < 1 | 2 to 4 (≈ 2.47 to 4.95 µM) |  | 2 to 4 (≈ 2.47 to 4.95 µM) |  |  | < 1 | 2 to 4 (≈ 2.47 to 4.95 µM) | < 1 |
| O=C(O)c1c(F)ccc2c1OB(O)[C@@H](NC(=O)[C@@H](NC(=O)N1CCN(C3CCN(C(=O)c4ccc(O)cc4)CC3)C1=O)c1cc(F)c(O)c(O)c1Cl)C2 (single isomer, unassigned) [Example 462] | > 128 | < 1 |  |  | < 10 | 8 to 16 (≈ 10.6 to 21.1 µM) | 32 to 64 (≈ 42.2 to 84.4 µM) | > 128 | 2 to 4 (≈ 2.64 to 5.28 µM) |  |  | 32 to 64 (≈ 42.2 to 84.4 µM) | 32 to 64 (≈ 42.2 to 84.4 µM) | < 1 |
| O=C(O)c1c(F)ccc2c1OB(O)[C@@H](NC(=O)[C@H](NC(=O)N1CCN(S(=O)(=O)c3ccc(O)c(O)c3Cl)C1=O)c1ccc(P(=O)(O)O)cc1)C2 [Example 506, (R)-3-((R)-2-(3-((2-chloro-3,4-dihydroxyphenyl)sulfonyl)-2-oxoimidazolidine-1-carboxamido)-2-(4-phosphonophenyl)acetamido)-7-fluoro-2-hydroxy-3,4-dihydro-2H-benzo[e][1,2]oxaborinine-8-carboxylic acid] | < 1 | < 1 | < 1 | < 1 |  | < 1 | < 1 | < 1 | < 1 | < 1 | < 1 |  |  |  |
| O=C(NCCCS(=O)(=O)N1CCN(C(=O)N[C@H](C(=O)N[C@H]2Cc3ccc(F)c(C(=O)O)c3OB2O)c2ccc(P(=O)(O)O)cc2)C1=O)c1ccc(O)c(O)c1Cl (single isomer, unassigned) [Example 169] | > 128 | > 128 |  | > 128 |  | > 128 | > 128 | > 128 | > 128 |  |  | > 128 | > 128 | > 128 |
| O=C(O)c1cccc2c1OB(O)[C@@H](NC(=O)[C@H](NC(=O)N1CCN(S(=O)(=O)c3ccc(O)c(O)c3Cl)C1=O)c1ccc(P(=O)(O)O)cc1)C2 [Example 509, (R)-3-((R)-2-(3-((2-chloro-3,4-dihydroxyphenyl)sulfonyl)-2-oxoimidazolidine-1-carboxamido)-2-(4-phosphonophenyl)acetamido)-2-hydroxy-3,4-dihydro-2H-benzo[e][1,2]oxaborinine-8-carboxylic acid] | < 1 | < 1 | < 1 | < 1 |  | < 1 | < 1 | < 1 | < 1 | < 1 | < 1 |  |  |  |
